Consider two molecules from patent US11407977B2, “Tissue scaffolds for electrically excitable cells” (Innovative Surface Technologies, Inc., priority 2013, dated 2022).

The subject of the test is bioartificial rat hippocampal brain slice. The experiment in a line: Evoked fEPSP field recording on bioartificial tissue scaffold with antagonist cocktail. The settings on record: cocktail in ACSF: CNQX 10 microM, APV 50 microM, Bicuculline Methbromide 50 microM; 10 minute wash-in; 28 d.i.v.; drug-subtracted average fEPSP, FIG. 12. In kind it is cell-based. The procedure: Dissociated hippocampal cells were seeded on open-field scaffolds and grown in an incubator as described in Example 9, to generate bioartificial open field hippocampal brain tissue “slices.” FIG. 11 is a photo micrograph of the bioartificial tissue, on its scaffold, in a conventional field recording chamber.
Bioartificial tissue scaffolds were removed from the incubator for electrophysiological testing between 14-90 days in vitro (d.i.v.). For electrophysiological field recordings, bioartificial tissue scaffolds were suspended on a nylon mesh in a small (350-400 μl) recording chamber (FIG. 11) and perfused with artificial cerebrospinal fluid (ACSF) at a rate of 2.5-3 ml/min (submerged mode). The temperature in the recording chamber was held at 30-32° C. Recordings were made using an ACSF-filled glass micropipette (2-4 MΩ) positioned as shown (FIG. 6) and connected via a head stage to the amplifier (A-M Systems model 1800). Signals were digitized at 100 kHz using a Digidata 1550 series interface (Axon instruments) running ClampEx 10.4. Synaptic responses were evoked by electrical stimulation using a bipolar tungsten electrode (tip spacing, 140 micrometers; Frederick Haer Company) and a 100 microsecond square wave test pulse was delivered at intervals of twenty seconds (FIG. 6). Stimulus-response relationship was established over the range of 0-1000 microV. […]

As for `N[C@@H](CCCP(=O)(O)O)C(=O)O` [APV], the “effect on evoked fEPSP” value is on record as “sensitivity of the bioartificial rat hippocampal brain slice”.

Consider `N#Cc1cc2[nH]c(=O)c(=O)[nH]c2cc1[N+](=O)[O-]` [CNQX], for which the “effect on evoked fEPSP” value is reported as “sensitivity of the bioartificial rat hippocampal brain slice”.
